Assay results published in patent US5856358A, “Mono- and disulfo-substituted anthraquinones and their use for the treatment of bone matrix disorders” (priority 1995, dated 1999).
Where two headings read alike, the source gives them in different places.

Tests used:
[1] = Adjuvant arthritis (Freund's complete adjuvant) in the rat: paw volume, radiography, histology; format: in vivo, rat (albino Sprague Dawley); conditions: for Volume increase in the oedema after 15 days, left paw / Volume increase in the oedema after 15 days, right paw: 20 mg/kg/os; for Volume increase in the oedema after 15 days, left paw: left (adjuvant-injected) rear paw, control 252 ± 26; for Volume increase in the oedema after 15 days, right paw: right rear paw, control 77 ± 29
Experimental: The test evaluates the effect of the compounds anthraquinone-2,6-disulfonicacid and N,N'-diethylanthraquinone-2,6-disulfonamide on rheumatoid arthritis in the rat induced by administration of complete Freund's adjuvant. Diacetylrhein was used as control.
For the test, albino Sprague Dawley rats weighing 200±10 g, were subdivided into four groups of six animals each. All of the compounds were administered orally at a dosage of 20 mg/kg. Arthritis was induced administering all the animals, in the left rear paw, with 5 mg of Freund's complete adjuvant suspended in 0.05 ml of paraffin oil (prior to the treatment, the paw volume of both rear paws was measured). The treatment with the tested products started 5 days after the arthritis induction and was carried out for ten days. Al the end of this time, the animals were killed to effect the analysis of the following evaluation parameters: measurement of the volume of both left and right rear paws; Rx in lateral and antero-posterior position of the tibio-tarsal articulation of the left paw; histology evaluation of the articulation of both left and right rear paws.

[2] = background art; cited from earlier work
[3] = system: ceruloplasmin; conditions: acute phase of arthritis inflammation; background art; cited from earlier work
[4] = background art (U.S. Pat. No. 4,244,968); cited from earlier work
[5] = system: copper "scavenging" of superoxide anion produced by the hypoxanthine/xanthine oxidase system; test: Copper "scavenging" effect (superoxide anion from hypoxanthine/xanthine oxidase system, cytochrome C); format: biochemical; conditions: for % Reduction (effect on copper "scavenging" action): hypoxanthine/xanthine oxidase, cytochrome c
Description: The study involves the production of superoxide anion by means of the hypoxanthine/xanthine oxidase system and the target is the reduction in cytochrome C iron content. […] Copper chelants inhibit such a "scavenging" effect.

[6] = system: superoxide anion from NADPH-dependent biological systems; conditions: Mian M. et al. 1987; cited from earlier work
[7] = system: elastase; conditions: from man; Raimondi 1982, Zembower 1992; cited from earlier work
[8] = system: Chinese hamster ovary (CHO) cells; test: Test of induction of chromosomal aberrations; format: cell-based; conditions: for Aberrations complex (C) / Aberrations simple (S) / Aberrations S + C: 100 metaphases; for Metaphases with aberrations: + S-9
Experimental: The clastogenetic effect of rhein and of 2,6-anthraquinonedisulfonic acid, was evaluated using the test of the induction of chromosomal aberrations in cell cultures of chinese hamster ovary (CHO). In this test, the cell line was treated with the tested substances and with suitable controls, in the presence of a metabolic activation system for four hours. After that, the cell in growth exponential phase were treated with colchicine (Colcemid^R) for 90 minutes, so as to obtain a significant number of cells in metaphase and to recover them for the preparation of the chromosome suspension. As the positive standard, cyclophosphamide was used (1-5-10-12.5-25 μg/ml).
The toxicity of the tested compounds was evaluated by means of the assay of the efficiency of plating, treating the cells for four hours, then seeding them at a concentration of 200 cells/5 ml of fresh culture medium.
On the ground of the results obtained by means of this test, dosages were selected for the treatment in the test of induction of chromosomal aberrations, so as not to exceed, with the highest dosage, 50% toxicity levels.
The chromosomal aberrations were recorded describing the type of structural damage. The numeric aberrations and gaps were discarded. Metaphases showing a good chromosomal opening, a good staining and an acceptable chromosome number (20±2) were selected. For statistical evaluations of the results, the quadratic Chi test was used.

[9] = system: cathepsin G; conditions: from man; Raimondi 1982, Zembower 1992; cited from earlier work
[10] = molecular target: T1, human cathepsin B (Homo sapiens, UniProt P07858); test: Effects on human cathepsin B enzymatic activity; format: biochemical
T1 construct: purchased Calbiochem
Experimental: (§1) Effects on human cathepsin B and L enzymatic activity
(§2) The anthraquinone monosulfonated and disulfonated compounds were dissolved in distilled water whereas the derivatives thereof were dissolved in dimethylsulfoxide. The concentration of the tested product was added to the reaction mixture in a volume of 100 μl.
(§3) Composition of the reaction mixture: 0.005M acetate buffer pH 6.0+2 mM cysteine+1 mM EDTA; Enzyme 1 U/ml (cathepsin B or L) (Calbiochem); substrate 0.2 mM Z-Phe-Arg-AMC (Novabiochem) final reaction volume 2 ml; temperature 25° C.; observation time for cathepsin B: 2 minutes; for L: 8 minutes. This is a fluorimetric determination wherein the excitation wavelength was 380 nm, the emission one being instead 460 nm. Fluorescence was read by means of a Perkin-Elmer spectrophotometer mod. LS-3B.
Anthraquinone-2,6-disulfonic acid: 1-5-10 μM
Anthraquinone-1,5-disulfonic acid: 1-5-10 μM
N,N'-(p-Ethoxyphenyl)-2,6-anthraquinone-disulfonamide: 1-10 μM.

[11] = molecular target: T2, human cathepsin L (Homo sapiens, UniProt P07711); test: Effects on human cathepsin L enzymatic activity; format: biochemical
T2 construct: purchased Calbiochem
Experimental: as §1, §2, §3

[12] = 20 mg/kg orally, ten days, right paw
[13] = M (mean of experiments 1-3), read-out: % Inhibition
[14] = experiment n. 1, read-out: % Inhibition
[15] = experiment n. 2, read-out: % Inhibition
[16] = experiment n. 3, read-out: % Inhibition

T2 sequence (P07711 114-288 limits assumed): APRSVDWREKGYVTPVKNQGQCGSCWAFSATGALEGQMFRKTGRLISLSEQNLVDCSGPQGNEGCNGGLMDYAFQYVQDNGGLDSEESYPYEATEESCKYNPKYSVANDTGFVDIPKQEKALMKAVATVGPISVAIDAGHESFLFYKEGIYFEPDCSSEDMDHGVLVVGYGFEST
T2 sequence (P07711 292-333 limits assumed): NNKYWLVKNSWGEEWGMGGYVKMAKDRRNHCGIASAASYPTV

Structure (SMILES): CC(=O)Oc1cccc2c1C(=O)c1c(OC(C)=O)cc(C(=O)O)cc1C2=O [Diacetylrhein, diacetylrhein, reference compound]
- inhibition (reduction) of the increase in the volume of the left rear paw ([1]; 20 mg/kg orally, ten days): 8.3%
- effect on the increase in the volume of the right paw (in words) [1, 12]: complete lack in activity
- formation of fibrous tissue in the articulation (histological examination) ([1]; 20 mg/kg orally, tibio-tarsal articulation): remarkably present
- Volume increase in the oedema after 15 days, left paw [1]: 231 ± 22
- Volume increase in the oedema after 15 days, right paw [1]: 92 ± 30
- copper chelation [2]: copper chelating agent
- inhibition of the formation of ceruloplasmin [3]: inhibits the formation of ceruloplasmin
- calcium chelation [4]: calcium chelating agent

Structure (SMILES): O=C1c2ccccc2C(=O)c2c1cccc2S(=O)(=O)O [1-AQ, 1-anthraquinonesulfonic acid]
- inhibition of copper "scavenging" effect (in words) [5]: nearly inactive
- % Reduction (effect on copper "scavenging" action) [5]: 3%

Structure (SMILES): O=C1c2ccccc2C(=O)c2cc(S(=O)(=O)O)ccc21 [2-AQ, 2-anthraquinonesulfonic acid]
- inhibition of copper "scavenging" effect (in words) [5]: nearly inactive
- % Reduction (effect on copper "scavenging" action) [5]: 5%

Structure (SMILES): O=C(O)c1cc(O)c2c(c1)C(=O)c1cccc(O)c1C2=O [Rhein, rhein]
- inhibition of formation and release of the superoxide anion [6]: inhibits the formation and release of the superoxide anion
- inhibition of elastase activity [7]: inhibits
- induction of chromosomal aberrations (in words) ([8]; doses of 100 and 200 μg/ml): positive
- Aberrations complex (C) ([8]; rhein 25 μg/ml): 1
- Aberrations simple (S) ([8]; rhein 25 μg/ml): 1
- Aberrations S + C ([8]; rhein 25 μg/ml, N.S.): 2
- Aberrations complex (C) ([8]; rhein 50 μg/ml): 3
- Aberrations simple (S) ([8]; rhein 50 μg/ml): 1
- Aberrations S + C ([8]; rhein 50 μg/ml, N.S.): 4
- Aberrations complex (C) ([8]; rhein 100 μg/ml): 6
- Aberrations simple (S) ([8]; rhein 100 μg/ml): 3
- Aberrations S + C ([8]; rhein 100 μg/ml, P < 0.05): 9
- Aberrations complex (C) ([8]; rhein 200 μg/ml): 5
- Aberrations simple (S) ([8]; rhein 200 μg/ml): 3
- Aberrations S + C ([8]; rhein 200 μg/ml, P < 0.05): 8
- inhibition of cathepsin G activity [9]: inhibits
- inhibition of copper "scavenging" effect (in words) [5]: inhibits said effect
- % Reduction (effect on copper "scavenging" action) [5]: 45%

Structure (SMILES): O=C1c2cccc(S(=O)(=O)O)c2C(=O)c2cccc(S(=O)(=O)O)c21 [1,5-anthraquinonedisulfonic acid, Anthraquinone-1,5-disulfonic acid]
- inhibition at 1 µM [10, 13]: 3.4%
- inhibition at 1 µM [10, 14]: 4.1%
- inhibition at 1 µM [10, 15]: 3.6%
- inhibition at 1 µM [10, 16]: 2.5%
- inhibition at 5 µM [10, 13]: 9.6%
- inhibition at 5 µM [10, 14]: 10.3%
- inhibition at 5 µM [10, 15]: 7.2%
- inhibition at 5 µM [10, 16]: 11.4%
- inhibition at 10 µM [10, 13]: 44.4%
- inhibition at 10 µM [10, 14]: 55.1%
- inhibition at 10 µM [10, 15]: 36.6%
- inhibition at 10 µM [10, 16]: 41.6%
- inhibition at 1 µM ([11]; M (mean of tests 1-3)): 8.1%
- inhibition at 1 µM ([11]; test n. 1): 10.5%
- inhibition at 1 µM ([11]; test n. 2): 8.4%
- inhibition at 1 µM ([11]; test n. 3): 5.5%
- inhibition at 10 µM ([11]; M (mean of tests 1-3)): 54.3%
- inhibition at 10 µM ([11]; test n. 1): 48.6%
- inhibition at 10 µM ([11]; test n. 2): 60.5%
- inhibition at 10 µM ([11]; test n. 3): 53.9%
- % Reduction (effect on copper "scavenging" action) [5]: 4%

Structure (SMILES): O=P1(N(CCCl)CCCl)NCCCO1 (centres unmarked) [CPS, Cyclophosphamide]
- Metaphases with aberrations ([8]; 1 μg/ml, 100 total metaphases, N.S.): 10
- Metaphases with aberrations ([8]; 5 μg/ml, 100 total metaphases, P < 0.001): 25
- Metaphases with aberrations ([8]; 10 μg/ml, 32 total metaphases, P < 0.001, control 13 of 220): 12
- Aberrations complex (C) ([8]; CPS 12.5 μg/ml): 44
- Aberrations simple (S) ([8]; CPS 12.5 μg/ml): 0
- Aberrations S + C ([8]; CPS 12.5 μg/ml, P < 0.001): 44
- Aberrations S + C ([8]; CPS 25 μg/ml, P < 0.001, control 12 of 400): 87
- Aberrations complex (C) ([8]; CPS 25 μg/ml, control 4 of 400): 87
- Aberrations simple (S) ([8]; CPS 25 μg/ml, control 8 of 400): 0

Structure (SMILES): O=C1c2ccc(S(=O)(=O)O)cc2C(=O)c2ccc(S(=O)(=O)O)cc21 [2,6-anthraquinonedisulfonic acid]
- inhibition at 1 µM ([10]; M (mean of experiments 1-3)): 40.7%
- inhibition at 1 µM ([10]; experiment n. 1): 43.7%
- inhibition at 1 µM ([10]; experiment n. 2): 33.7%
- inhibition at 1 µM ([10]; experiment n. 3): 38.5%
- inhibition at 5 µM ([10]; M (mean of experiments 1-3)): 70.1%
- inhibition at 5 µM ([10]; experiment n. 1): 68.5%
- inhibition at 5 µM ([10]; experiment n. 2): 65.8%
- inhibition at 5 µM ([10]; experiment n. 3): 76%
- inhibition at 10 µM ([10]; M (mean of experiments 1-3)): 94.9%
- inhibition at 10 µM ([10]; experiment n. 1): 98.9%
- inhibition at 10 µM ([10]; experiment n. 2): 98.2%
- inhibition at 10 µM ([10]; experiment n. 3): 87.7%
- inhibition (reduction) of the increase in the volume of the left rear paw ([1]; 20 mg/kg orally, ten days): 18.6%
- inhibition of the increase in the volume of the right paw [1, 12]: 67.5%
- Volume increase in the oedema after 15 days, left paw [1]: 205 ± 41
- Volume increase in the oedema after 15 days, right paw [1]: 25 ± 20
- inhibition at 1 µM ([11]; M (mean of tests 1-3)): 35.6%
- inhibition at 1 µM ([11]; test n. 1): 39.6%
- inhibition at 1 µM ([11]; test n. 2): 31.4%
- inhibition at 1 µM ([11]; test n. 3): 35.8%
- inhibition at 10 µM ([11]; M (mean of tests 1-3)): 94.5%
- inhibition at 10 µM ([11]; test n. 1): 92.1%
- inhibition at 10 µM ([11]; test n. 2): 96.5%
- inhibition at 10 µM ([11]; test n. 3): 94.8%
- Metaphases with aberrations ([8]; 50 μg/ml, 100 total metaphases, N.S.): 2
- Metaphases with aberrations ([8]; 100 μg/ml, 100 total metaphases, N.S.): 4
- Metaphases with aberrations ([8]; 150 μg/ml, 100 total metaphases, N.S.): 8
- Metaphases with aberrations ([8]; 200 μg/ml, 100 total metaphases, N.S.): 8
- Metaphases with aberrations ([8]; 250 μg/ml, 100 total metaphases, N.S.): 6
- induction of chromosomal aberrations (in words) ([8]; 50-250 μg/ml): induces no chromosomal aberrations

Structure (SMILES): CCOc1ccc(NS(=O)(=O)c2ccc3c(c2)C(=O)c2ccc(S(=O)(=O)Nc4ccc(OCC)cc4)cc2C3=O)cc1 [N,N'-(p-Ethoxyphenyl)-2,6-anthraquinonedisulfonamide]
- inhibition at 1 µM [10, 13]: 19%
- inhibition at 1 µM [10, 14]: 23.7%
- inhibition at 1 µM [10, 15]: 18.6%
- inhibition at 1 µM [10, 16]: 14.8%
- inhibition at 10 µM [10, 13]: 80.2%
- inhibition at 10 µM [10, 14]: 76.6%
- inhibition at 10 µM [10, 15]: 80.6%
- inhibition at 10 µM [10, 16]: 83.4%
- inhibition at 1 µM ([11]; M (mean of tests 1-3)): 8.8%
- inhibition at 1 µM ([11]; test n. 1): 8.5%
- inhibition at 1 µM ([11]; test n. 2): 7.1%
- inhibition at 1 µM ([11]; test n. 3): 10.9%
- inhibition at 10 µM ([11]; M (mean of tests 1-3)): 55.2%
- inhibition at 10 µM ([11]; test n. 1): 53.6%
- inhibition at 10 µM ([11]; test n. 2): 48.1%
- inhibition at 10 µM ([11]; test n. 3): 63.8%

Structure (SMILES): CCNS(=O)(=O)c1ccc2c(c1)C(=O)c1ccc(S(=O)(=O)NCC)cc1C2=O [N,N'-Diethyl-2,6-anthraquinonedisulfonamide]
- inhibition (reduction) of the increase in the volume of the left rear paw ([1]; 20 mg/kg orally, ten days): 21.4%
- inhibition of the increase in the volume of the right paw [1, 12]: 62.3%
- Volume increase in the oedema after 15 days, left paw [1]: 198 ± 31
- Volume increase in the oedema after 15 days, right paw [1]: 29 ± 12
